The values below come from patent US20150335558A1, “NERVE GROWTH INHIBITOR, CUTANEOUS-SENSORY-IRRITATION INHIBITOR, AND MARKER FOR CUTANEOUS-SENSORY-IRRITATION DETECTION” (HOYU CO., LTD., priority 2012, published 2015).

Test [1] concerns L-histidine decarboxylase (HDC). Description: HDC expression amount in mouse epidermis and dermis by Western blot (Sample Experiment 1-3). In kind it is in vivo. To be noted: ICR mice, Day 4, 10% SDS vs solvent control. The source says: Concerning the epidermis and dermis obtained by the method in the “Amount of Histamine in Mouse Skin” section above, the HDC in the epidermis and the HDC in the dermis were quantitatively determined by the Western blot analysis. The protein in the epidermis and the dermis was extracted using the Mammalian cell lysis kit (Sigma, Tokyo, Japan).
The protein extract was subjected to centrifugation and the obtained supernatant was used as a protein solution. The amount of protein in the protein solution was quantitatively determined using a protein quantification kit, 2-D Quant Kit of GE Health Care Bioscience Co. Then, a sample buffer containing a reducing agent, 2-mercaptoethanol, was added to a certain amount of protein, and the mixture was reacted at 95° C. to cut the disulfide bond in the protein structure. This enables electrophoresis that reflects the molecular amount.
The protein solution processed in the above manner was subjected to the Western blot analysis. In other words, electrophoresis was performed according to the following electrophoresis condition. As a result, protein was separated according to the molecular amount. Then, the separated protein was transcribed to the membrane according to the following transcription condition.
Applied gel: Nupage 4%-12% Bis-tris gels (Invitrogen Corp., Carlsbad, Calif.) Electrophoresis buffer: 3-morpholinopropanesulfonic acid (MOPS) buffer Current/electrophoresis time: 200V, 100 mins.
Applied membrane: Polyvinylidene Fluoride (PVDF) membrane Electrophoresis buffer: NuPAGE transcription buffer (Invitrogen Corp., Carlsbad, Calif.) pos Current/electrophoresis time: 30V, 60 mins.
The membrane was cut at about 50 kDa after transcription. Then, blocking was performed with a 1% skim milk aqueous solution. […] After processing the secondary antibody and then washing each membrane with PBS-T (a solution comprising PBS and 0.1% Tween20), a band was detected with a fluorescent scanner. Then, the detected band was determined by quantification using an image analysis software Scion Image (Scion. Corp., Frederick, Md., USA). The Scion Image is a software that selects the band of the protein to be quantified, reads the band area and the density of the color tone, and detects the numerical value corresponding to the protein expression amount based on those information.
HDC and β-actin (component of the cytoskeleton) are detected from the above processing. […]

Test [2] relates to mast cell deficient mice (WBB6F1-W/W^V) and normal control mice (WBB6F1-+/+). The experiment in a line: Scratch bouts of mast cell deficient and normal control mice after 10% SDS application (Sample Experiment 1-2). The format is in vivo, mouse. The conditions noted are these: both mast cell deficient and normal control mice, 10% SDS aqueous solution 50 μL single application; no significant difference between both mice. As to the method: The present Sample Experiment was conducted using mast cell deficient mice and normal control mice, and SDS was used as a stimulating substance to analyze the scratch bouts of mice. Further, the amount of histamine in the skin of each mouse was assessed after SDS had been applied. Male mast cell deficient mice at ages of 7 to 8 weeks (WBB6F1-W/W^V mouse), purchased from Japan SLC, and normal control mice that are wild mice at ages of 7 to 8 weeks (WBB6F1-+/+mouse) were used. The mice were given solid feed under free water supply and subjected to preliminary rearing for 7 days or longer under a constant temperature/constant humidity environment with a temperature of 22±2° C., and a humidity of 55±10% before they were used in the test. The mice for use were used in the test at least 3 days after shearing/depilating the rostral back of each mouse. A 10% aqueous solution composed of SDS dissolved in distilled water was applied a single time at 50 μL as a stimulating substance against the skin to the sheared/depilated rostral back of the mice mentioned above. If the surfactant solution had turned hard before application, it was heated and dissolved in a hot water bath of 37° C. before use. Distilled water was applied to the solvent control group (Vehicle). […]

Test [3] deals with histamine in mouse epidermis and dermis. The experiment in a line: Amount of histamine in skin of mast cell deficient and normal control mice after SDS (Sample Experiment 1-2). In kind it is in vivo. The conditions noted are these: Day 4, both mast cell deficient and normal control mice, SDS applied group vs solvent control. On the procedure: Meanwhile, skin was collected from each of the mast cell deficient mice and normal control mice in the 10% SDS aqueous solution application group mentioned above at Day 4 while the mice were under anesthesia after perfusion with a phosphate buffer solution (PBS) using the cardiac blood circulation system (punched out with a biopsy punch in a circular shape of a diameter of 18 mm). The amounts of histamine in the collected skins were measured. In other words, each collected skin was immersed in PBS of 60° C. for 30 secs., then separated into the epidermis and the dermis. Subsequently, the amounts of histamine in the epidermis and the dermis were measured using the measurement kit (histamine enzyme immunoassay kit (Immunotech, Marseilles, France)). To measure the amount of histamine, tissues of both the epidermis and the dermis were pulverized to create tissue suspensions, which were subjected to centrifugation, then supernatants were collected to measure the amounts of histamine in the supernatants.

Test [4] has the same test system. The experiment in a line: Amount of histamine in ICR mouse skin after SDS (Sample Experiment 1-3). The format is in vivo. The conditions noted are these: ICR mice, Day 4, 10% SDS application group vs solvent control. On the procedure:
The present Sample Experiment was conducted using ICR mice, and SDS was used as a stimulating substance. After SDS was applied, the amount of histamine in the skin of each mouse was assessed, and so was the HDC expression amount in the skin of each mouse. The same ICR mice as used in Sample Experiment 1-1 was used. Treatments of the ICR mice, such as preliminary rearing, and the shearing/depilating of the rotal back, were performed similarly to Sample Experiment 1-1. A 10% aqueous solution obtained by dissolving SDS in distilled water was applied to the mouse rostal back as a stimulating substance against the skin similarly to Sample Experiment 1-1. Distilled water was applied to the solvent control group (Vehicle). Skin was collected by operations similar to that mentioned in “Amount of Histamine in Mouse Skin” in Sample Experiment 1-2 from each ICR mouse of the 10% SDS aqueous solution application group and the solvent control group mentioned above after 4 days had passed from application (Day 4). The collected skins were separated into the epidermis and the dermis, and the amounts of histamine in those skins were measured.

Turning to `CCCCCCCCCCCCOS(=O)(=O)[O-].[Na+]` [SDS, sodium dodecyl sulfate], in test [1], the “53 kDa-HDC (active) expression amount, dermis” value is reported as “did not change”; the “53 kDa-HDC (active) expression amount, epidermis” value was “increased”; the “74 kDa-HDC (inactive) expression amount, dermis” value is “increased significantly”; the “74 kDa-HDC (inactive) expression amount, epidermis” value is “increased”. In addition, in test [2], the “scratch bouts of mice (number in 60 mins.) after stimulating substance” value is given as “increased significantly with time”. Also, in test [3], the “amount of histamine in mouse dermis” value is on record as “barely increased” and the “amount of histamine in mouse epidermis” value was “significantly high”. Besides, in test [4], the “amount of histamine in mouse dermis” value is given as “does not differ significantly” and the “amount of histamine in mouse epidermis” value is given as “significantly higher”.
